Key:
BaF3(WT) = BaF3(WT) (Homo sapiens, UniProt P00519); experiment: WST (CCK-8) anti-proliferative assay, BaF3 WT; conditions: read-out: BaF3(WT); BaF3 WT cells, 72 h treatment, CCK-8 readout OD 450 nm
Experimental: (§1) The anti-proliferative effect of representative compounds of the present disclosure was determined by a water-soluble tetrazolium (WST)-based assay using Cell Counting Kit-8 (CCK-8). Cells were seeded in 96-well plates and treated with different concentrations of test articles for 72 h. Each treatment was tested in triplicate. Briefly, a series of 9 concentrations were chosen for each test article and added at 100 μl/well into a 96-well plate. Each concentration was tested in triplicate. 100 μl of diluent was added into 3-6 wells in the same plate for cell control group, and another set of 3-6 wells was used as a blank control.
(§2) In each well, 100 μl of cell suspension (containing optimal cell numbers, which creates approximately 100% confluence of cells in control wells based on by the absorbance (OD) value) was dispensed into the same 96-well plate except for the blank well. The plate was then cultured at 37° C. in an incubator in an atmosphere with 5% CO2 for 72 h. At the end of the treatments, 20 μl/well of CCK-8 reagent was directly added to each well. The plate was then incubated at 37° C. in an incubator in an atmosphere with 5% CO2 for 2-4 hours.
(§3) The cells viability was calculated using the mean OD value of triplicated wells following the equation below: (OD sample−OD blank)/(OD cell control−OD blank)×100 IC50 values were calculated with Graphpad Prism 6.0 software using nonlinear regression (curve fitting) type data analysis.

BaF3 (T315I mutant) = BaF3 (T315I mutant) (Homo sapiens, UniProt P00519, T315I, cells depend on it); experiment: WST (CCK-8) anti-proliferative assay, BaF3 T315I mutant; conditions: read-out: BaF3 (T315I mutant), 72 h treatment, CCK-8 readout OD 450 nm
Experimental: as §1, §2, §3

| SMILES | GI50 (BaF3(WT)) [µM] | GI50 (BaF3 (T315I mutant)) [µM] |
| --- | --- | --- |
| CC(C)N1c2c(-c3ccn[nH]3)cc(C(=O)Nc3ccc(OC(F)(F)Cl)cc3)cc2C2CCC(NC(=O)CCC(=O)O)C21 (centres unmarked) [Compound 39, 4-((7-((4-(chlorodifluoromethoxy)phenyl)carbamoyl)-4-isopropyl-5-(1H-pyrazol-5-yl)-1,2,3,3a,4,8b-hexahydrocyclopenta[b]indol-3-yl)amino)-4-oxobutanoic acid] | 2.76 | 5.71 |
| CC(C)N1c2c(-c3ccn[nH]3)cc(C(=O)Nc3ccc(OC(F)(F)Cl)cc3)cc2C2CCC(NC(=O)N3CCOCC3)C21 (centres unmarked) [Compound 10] | 0.031 | 0.029 |
| CC(=O)N[C@@H]1CC[C@H]2c3cc(C(=O)Nc4ccc(OC(F)(F)Cl)cc4)cc(-c4cccnc4)c3N(C(C)C)[C@@H]12 [Compound 26-A, (3R,3aR,8bS)-3-acetamido-N-(4-(chlorodifluoromethoxy)phenyl)-4-isopropyl-5-(pyridin-3-yl)-1,2,3,3a,4,8b-hexahydrocyclopenta[b]indole-7-carboxamide] | 0.006 | 0.041 |
| CC(=O)N[C@@H]1CC[C@H]2c3cc(C(=O)Nc4ccc(OC(F)(F)Cl)cc4)cc(-c4cc(F)cc(C#N)c4)c3N(C(C)C)[C@@H]12 [Compound 48-A] | 0.002 | 0.014 |
| CC(=O)N[C@@H]1CC[C@H]2c3cc(C(=O)Nc4ccc(OC(F)(F)Cl)cc4)cc(-c4cc(F)cnc4C#N)c3N(C(C)C)[C@@H]12 [Compound 67-A] | 0.006 | 0.059 |
| CC(C)NS(=O)(=O)NC1CCC2c3cc(C(=O)Nc4ccc(OC(F)(F)Cl)cc4)cc(-c4ccn[nH]4)c3N(C(C)C)C12 (centres unmarked) [Compound 19] | 0.006 | 0.097 |
| CC(=O)NC1CCC2c3cc(C(=O)Nc4ccc(OC(F)(F)Cl)cc4)cc(-c4ccn[nH]4)c3N(C(C)C)C12 (centres unmarked) [Compound 4, 3-acetamido-N-(4-(chlorodifluoromethoxy)phenyl)-4-isopropyl-5-(1H-pyrazol-5-yl)-1,2,3,3a,4,8b-hexahydrocyclopenta[b]indole-7-carboxamide] | 0.014 | 0.071 |
| CC(C)N1c2c(-c3ccn[nH]3)cc(C(=O)Nc3ccc(OC(F)(F)Cl)cc3)cc2[C@@H]2CCS(=O)(=O)C[C@@H]21 [Compound 54-A, (4aS,9aR)-N-(4-(chlorodifluoromethoxy)phenyl)-9-isopropyl-8-(1H-pyrazol-5-yl)-1,3,4,4a,9,9a-hexahydrothiopyrano[3,4-b]indole-6-carboxamide 2,2-dioxide] | 0.008 | 0.045 |
| CC(=O)NC1CCC2c3cc(C(=O)Nc4ccc(OC(F)(F)Cl)cc4)cc(-c4cc[nH]n4)c3N(CC3(C)CC3)C12 (centres unmarked) [Compound 45] | 0.018 | 0.111 |
| CCOC(=O)NC1CCC2c3cc(C(=O)Nc4ccc(OC(F)(F)Cl)cc4)cc(-c4ccn[nH]4)c3N(C(C)C)C12 (centres unmarked) [Compound 28] | 0.019 | 0.168 |
| CC(C)N1c2c(-c3ccn[nH]3)cc(C(=O)Nc3ccc(OC(F)(F)Cl)cc3)cc2C2CCC(NS(=O)(=O)N3CCN(C)CC3)C21 (centres unmarked) [Compound 15] | 0.035 | 0.346 |
| CCC(CC)N1c2c(-c3cncc(F)c3)cc(C(=O)Nc3ccc(OC(F)(F)Cl)cc3)cc2C2CCC(NC(C)=O)C21 (centres unmarked) [Compound 65] | 0.009 | 0.119 |
| CC(=O)N[C@@H]1CC[C@H]2c3cc(C(=O)Nc4ccc(OC(F)(F)Cl)cc4)cc(-c4ccn[nH]4)c3N(C(C)C)[C@@H]12 [Compound 4-A, (3R,3aR,8bS)-3-acetamido-N-(4-(chlorodifluoromethoxy)phenyl)-4-isopropyl-5-(1H-pyrazol-5-yl)-1,2,3,3a,4,8b-hexahydrocyclopenta[b]indole-7-carboxamide] | 0.003 | 0.035 |
| CC(C)N1c2c(-c3ccn[nH]3)cc(C(=O)Nc3ccc(OC(F)(F)Cl)cc3)cc2C2CCC(NC(=O)c3cocn3)C21 (centres unmarked) [Compound 30] | 0.016 | 0.064 |
| CC(=O)NC1CCC2c3cc(C(=O)Nc4ccc(OC(F)(F)Cl)cc4)cc(-c4ccn[nH]4)c3N(CC(C)(C)C)C12 (centres unmarked) [Compound 22] | 0.003 | 0.021 |
| CC(=O)NC1CC2c3cc(C(=O)Nc4ccc(OC(F)(F)Cl)cc4)cc(-c4ccn[nH]4)c3N(C(C)C)C2C1 (centres unmarked) [Compound 43, 2-acetamido-N-(4-(chlorodifluoromethoxy)phenyl)-4-isopropyl-5-(1H-pyrazol-5-yl)-1,2,3,3a,4,8b-hexahydrocyclopenta[b]indole-7-carboxamide] | 0.19 | 0.768 |
| CC(=O)NC1CCC2c3cc(C(=O)Nc4ccc(OC(F)(F)Cl)cc4)cc(-c4cncc(F)c4)c3N(C3CCCC3)C12 (centres unmarked) [Compound 64] | 0.008 | 0.043 |

| SMILES | GI50 (BaF3(WT)) [µM] | GI50 (BaF3 (T315I mutant)) [µM] |
| --- | --- | --- |
| CC(C)N1c2c(-c3ccn[nH]3)cc(C(=O)Nc3ccc(OC(F)(F)Cl)cc3)cc2C2CCC(NS(=O)(=O)C3CC3)C21 (centres unmarked) [Compound 24] | 0.017 | 0.114 |
| COCCS(=O)(=O)NC1CCC2c3cc(C(=O)Nc4ccc(OC(F)(F)Cl)cc4)cc(-c4ccn[nH]4)c3N(C(C)C)C12 (centres unmarked) [Compound 18] | 0.013 | 0.126 |
| CC(=O)N[C@@H]1CC[C@H]2c3cc(C(=O)Nc4ccc(OC(F)(F)Cl)cc4)cc(-c4ccccn4)c3N(CC(C)(C)C)[C@@H]12 [Compound 56-A] | 0.056 | 0.44 |
| CC(C)N1c2c(-c3ccn[nH]3)cc(C(=O)Nc3ccc(OC(F)(F)Cl)cc3)cc2C2CCC(NC(=O)Nc3cnccn3)C21 (centres unmarked) [Compound 33, N-(4-(chlorodifluoromethoxy)phenyl)-4-isopropyl-3-(3-(pyrazin-2-yl)ureido)-5-(1H-pyrazol-5-yl)-1,2,3,3a,4,8b-hexahydrocyclopenta[b]indole-7-carboxamide] | 0.014 | 0.109 |
| CC(C)N1c2c(-c3ccn[nH]3)cc(C(=O)Nc3ccc(OC(F)(F)Cl)cc3)cc2C2CC(O)C(O)C21 (centres unmarked) [Compound 3, N-(4-(chlorodifluoromethoxy)phenyl)-2,3-dihydroxy-4-isopropyl-5-(1H-pyrazol-5-yl)-1,2,3,3a,4,8b-hexahydrocyclopenta[b]indole-7-carboxamide] | 0.036 | 0.177 |
| CC(=O)N[C@H]1CC[C@@H]2c3cc(C(=O)Nc4ccc(OC(F)(F)Cl)cc4)cc(-c4cccnc4)c3N(C(C)C)[C@H]12 [Compound 26-B, (3S,3aS,8bR)-3-acetamido-N-(4-(chlorodifluoromethoxy)phenyl)-4-isopropyl-5-(pyridin-3-yl)-1,2,3,3a,4,8b-hexahydrocyclopenta[b]indole-7-carboxamide] | 0.186 | 0.956 |
| CC(C)N1c2c(-c3ccn[nH]3)cc(C(=O)Nc3ccc(OC(F)(F)Cl)cc3)cc2C2CCC(N3CCCCC3=O)C21 (centres unmarked) [Compound 36, N-(4-(chlorodifluoromethoxy)phenyl)-4-isopropyl-3-(2-oxopiperidin-1-yl)-5-(1H-pyrazol-5-yl)-1,2,3,3a,4,8b-hexahydrocyclopenta[b]indole-7-carboxamide] | 0.009 | 0.084 |
| CC(C)N1c2c(-c3ccn[nH]3)cc(C(=O)Nc3ccc(OC(F)(F)Cl)cc3)cc2C2CCC(NC(=O)C3CCNCC3)C21 (centres unmarked) [Compound 27] | 1.24 | 5.06 |
| CC(=O)N[C@@H]1CC[C@H]2c3cc(C(=O)Nc4ccc(OC(F)(F)Cl)cc4)cc(-c4cncnc4)c3N(C(C)C)[C@@H]12 [Compound 20-A, (3R,3aR,8bS)-3-acetamido-N-(4-(chlorodifluoromethoxy)phenyl)-4-isopropyl-5-(pyrimidin-5-yl)-1,2,3,3a,4,8b-hexahydrocyclopenta[b]indole-7-carboxamide] | 0.042 | 0.029 |
| CC(C)N1c2c(-c3ccn[nH]3)cc(C(=O)Nc3ccc(OC(F)(F)Cl)cc3)cc2C2CCC(NS(=O)(=O)N3CCCCC3)C21 (centres unmarked) [Compound 16] | 0.012 | 0.252 |
| CC(=O)NC1CCC2c3cc(C(=O)Nc4ccc(OC(F)(F)Cl)cc4)cc(-c4ccn[nH]4)c3N(C3CC3)C12 (centres unmarked) [Compound 62] | 0.021 | 0.041 |
| CC(=O)N[C@@H]1CC[C@H]2c3cc(C(=O)Nc4ccc(OC(F)(F)Cl)cc4)cc(-c4cncc(C)c4)c3N(C(C)C)[C@@H]12 [Compound 50-A] | 0.004 | 0.039 |
| CC(C)N1c2c(-c3ccn[nH]3)cc(C(=O)Nc3ccc(OC(F)(F)Cl)cc3)cc2C2CCN(C)CC21 (centres unmarked) [Compound 40, N-(4-(chlorodifluoromethoxy)phenyl)-9-isopropyl-2-methyl-8-(1H-pyrazol-5-yl)-2,3,4,4a,9,9a-hexahydro-1H-pyrido[3,4-b]indole-6-carboxamide] | 0.358 | 1.11 |
| COC(C)(C)CN1c2c(-c3ccn[nH]3)cc(C(=O)Nc3ccc(OC(F)(F)Cl)cc3)cc2C2CCC(NC(C)=O)C21 (centres unmarked) [Compound 63] | 0.041 | 0.052 |
| CC(C)N1c2c(-c3ccn[nH]3)cc(C(=O)Nc3ccc(OC(F)(F)Cl)cc3)cc2C2CCC(NC(=O)C3CCN(C)CC3)C21 (centres unmarked) [Compound 32] | 0.491 | 2.11 |
| CC(=O)N[C@H]1CC[C@@H]2c3cc(C(=O)Nc4ccc(OC(F)(F)Cl)cc4)cc(-c4ccn[nH]4)c3N(CC(C)(C)C)[C@H]12 [Compound 22-B, (3S,3aS,8bR)-3-acetamido-N-(4-(chlorodifluoromethoxy)phenyl)-4-neopentyl-5-(1H-pyrazol-5-yl)-1,2,3,3a,4,8b-hexahydrocyclopenta[b]indole-7-carboxamide] | 0.482 | 1.01 |
| CC(=O)N[C@@H]1CC[C@H]2c3cc(C(=O)Nc4ccc(OC(F)(F)Cl)cc4)cc(-c4cncc(C#N)c4)c3N(C(C)C)[C@@H]12 [Compound 53-A] | 0.003 | 0.016 |

From patent US11987575B2, “Tricyclic compounds as BCR-ABL inhibitors” (ASCENTAGE PHARMA (SUZHOU) CO., LTD., priority 2019, dated 2024)
